Laboratory results reported in patent publication US20250368628A1, “METHODS AND COMPOUNDS FOR MODULATING INHERITED GENETIC DISEASES” (Design Therapeutics, Inc., priority 2022, published 2025).

Columns and labels:
F35T cells = assay: Foci reduction in FECD (CAG10-Cy3 FISH, foci per nucleus); type: cell-based; settings: F35T cells, 48 h treatment, foci per nucleus; read-out: FECD EC50, 48 h
Description: F35T cells were cultured in media containing Opti-MEM (ThermoFisher) supplemented with 8% FBS, 20 μg/mL ascorbic acid, […] CaCl2, 0.08% chondroitin sulfate, 1×Pen/Strep, 100 μg/mL bovine pituitary extract, 5 ng/mL epidermal growth factor, and 20 ng/mL nerve growth factor. Throughout the culture, cells were maintained in an incubator at 37° C. and 5% CO2. Media was refreshed every 48 hours. Once cells reached adequate confluency, they were harvested and seeded in 96 well plates with a density of 5000 cells per well in 200 μL of the supplemented Opti-MEM media. Cells were returned to the incubator and left to settle for 24 hours at 37° C. and 5% CO2. Cells were then treated in 8-point dose response with compounds or negative controls and incubated for 48 hours at 37° C. and 5% CO2. After treatment, cells were fixed with 4% PFA for 20 minutes at room temperature, followed by permeabilization with 70% ethanol. Cells were incubated at −20° C. for a minimum of 1 hour and maximum of 72 hours, after which the ethanol was removed, and cells were washed with PBS. Cells were rehydrated with 30% formamide and 2×SSC buffer for 10 minutes at room temperature. Cells were then incubated overnight at 37° C. in the hybridization solution containing 30% formamide, 2×SSC, 55 mg/mL dextran sulfate, 2.75 mg/mL bovine serum albumin, 0.2 μg/mL Herring sperm DNA, 1% vanadyl-ribonucleoside complex, and 0.05% 10 μM CAG10-Cy3 probe. Cells were washed twice with 30% formamide in 2×SSC, incubating the cells while shaking with the second wash at 37° C. and 200 rpm for 60 minutes. Cells were stained with 5 mg/mL DAPI 1:1000 in PBS, incubating at room temperature for 5 minutes. Cells were then washed with PBS and sealed with adhesive foil, with each well containing a final volume of 150 μL PBS. Cells were imaged on a Cytation 5 and analyzed on a foci per nucleus basis.

[1] = tested on: Myotonic Dystrophy 1 affected patient fibroblasts (Coriel GM04602; 1600 CTG repeats); assay: DM1 foci reduction assay (EC50 assay; CAG10-Cy3 FISH, foci per nucleus); type: cell-based; settings: Homo sapiens, Fibroblast; DM1 patient fibroblasts, 48 h treatment, foci per nucleus; read-out: DM1 EC50, 48 h
Summary of the method: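 Foci per nucleus counted by 20× imaging of 4 areas per well, after overnight FISH with 5 nM CAG10-Cy3 and DAPI staining of fixed, permeabilized cells. DM1 fibroblasts (GM04602, 1600 CTG) were dosed 48 h at 37 °C, 8 points, 3-fold dilutions, 3 μM top concentration.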

Structure (SMILES)	EC50 (F35T cells)	EC50 [1]
CCCNC(=O)CCNC(=O)c1nc(NC(=O)c2cc(NC(=O)CCNC(=O)c3nc(NC(=O)CCCNC(=O)c4cc(NC(=O)c5nc(NC(=O)CCNC(=O)c6cc(NC(=O)c7nccn7C)cn6C)cn5C)cn4C)cn3C)cn2C)cn1C [Compound B-1]	< 100 nM	100 to 500 nM
CCOC(=O)CCNC(=O)c1nc(NC(=O)c2cc(NC(=O)CCNC(=O)c3nc(NC(=O)[C@H](N)CCNC(=O)c4cc(NC(=O)c5nc(NC(=O)CCNC(=O)c6cc(NC(=O)c7nccn7C)cn6C)cn5C)cn4C)cn3C)cn2C)cn1C [Compound B-2]	100 to 500 nM	100 to 500 nM
CCCNC(=O)CCNC(=O)c1nc(NC(=O)c2cc(NC(=O)CCNC(=O)c3nc(NC(=O)[C@H](N)CCNC(=O)c4cc(NC(=O)c5nc(NC(=O)CCNC(=O)c6cc(NC(=O)c7nccn7C)cn6C)cn5C)cn4C)cn3C)cn2C)cn1C [Compound B-3, N-(5-{[(3R)-3-amino-3-[(1-methyl-2-{[2-({1-methyl-5-[(1-methyl-2-{[2-(propylcarbamoyl)ethyl]carbamoyl}imidazol-4-yl)carbamoyl]pyrrol-3-yl}carbamoyl)ethyl]carbamoyl}imidazol-4-yl)carbamoyl]propyl]carbamoyl}-1-methylpyrrol-3-yl)-1-methyl-4-(3-{[1-methyl-4-(1-methylimidazole-2-amido)pyrrol-2-yl]formamido}propanamido)imidazole-2-carboxamide]	500 to 1000 nM	< 100 nM
CCOC(=O)CCNC(=O)c1nc(NC(=O)c2cc(NC(=O)CCNC(=O)c3nc(NC(=O)[C@@H](CCNC(=O)c4cc(NC(=O)c5nc(NC(=O)CCNC(=O)c6cc(NC(=O)c7nccn7C)cn6C)cn5C)cn4C)NC(C)=O)cn3C)cn2C)cn1C [Compound B-4]	100 to 500 nM	100 to 500 nM
CCCNC(=O)CCNC(=O)c1nc(NC(=O)c2cc(NC(=O)CCNC(=O)c3nc(NC(=O)[C@@H](CCNC(=O)c4cc(NC(=O)c5nc(NC(=O)CCNC(=O)c6cc(NC(=O)c7nccn7C)cn6C)cn5C)cn4C)NC(C)=O)cn3C)cn2C)cn1C [Compound B-5]	100 to 500 nM	< 100 nM
Cn1cc(NC(=O)c2nc(NC(=O)CCNC(=O)c3cc(NC(=O)c4nc(NC(=O)[C@H](N)CCNC(=O)c5cc(NC(=O)c6nc(NC(=O)CCNC(=O)c7cc(NC(=O)c8nccn8C)cn7C)cn6C)cn5C)cn4C)cn3C)cn2C)cc1C(=O)NCCO [Compound B-8]	> 1000 nM	500 to 1000 nM
CCCNC(=O)c1cc(NC(=O)c2nc(NC(=O)CCNC(=O)c3cc(NC(=O)c4nc(NC(=O)CCCNC(=O)c5cc(NC(=O)c6nc(NC(=O)CCNC(=O)c7cc(NC(=O)c8nccn8C)cn7C)cn6C)cn5C)cn4C)cn3C)cn2C)cn1C [Compound B-9]	< 100 nM	> 1000 nM
CCCNC(=O)CCNC(=O)c1cc(NC(=O)c2nc(NC(=O)CCNC(=O)c3cc(NC(=O)c4nc(NC(=O)CCCNC(=O)c5cc(NC(=O)c6nc(NC(=O)CCNC(=O)c7cc(NC(=O)c8nccn8C)cn7C)cn6C)cn5C)cn4C)cn3C)cn2C)cn1C [Compound B-10]	< 100 nM	> 1000 nM
Cn1cc(NC(=O)c2nc(NC(=O)CCNC(=O)c3cc(NC(=O)c4nccn4C)cn3C)cn2C)cc1C(=O)NCCCC(=O)Nc1cn(C)c(C(=O)NCCC(=O)Nc2cc(C(=O)Nc3cn(C)c(C(=O)NCCC(=O)NCCOCCOCCOCCOCCOc4ccc(N)cc4)n3)n(C)c2)n1 [Compound B-12]	100 to 500 nM	100 to 500 nM
Cn1cc(NC(=O)c2nc(NC(=O)CCNC(=O)c3cc(NC(=O)c4nccn4C)cn3C)cn2C)cc1C(=O)NCCCC(=O)Nc1cn(C)c(C(=O)NCCC(=O)Nc2cc(C(=O)Nc3cn(C)c(C(=O)NCCC(=O)NCCOCCOCCOc4ccc(N)cc4)n3)n(C)c2)n1 [Compound B-14]	100 to 500 nM	100 to 500 nM
Cn1cc(NC(=O)c2nc(NC(=O)CCNC(=O)c3cc(NC(=O)c4nccn4C)cn3C)cn2C)cc1C(=O)NCCCC(=O)Nc1cn(C)c(C(=O)NCCC(=O)Nc2cc(C(=O)Nc3cn(C)c(C(=O)NCCC(=O)NCCOCCOc4ccc(NC(=O)OCc5ccccc5)cc4)n3)n(C)c2)n1 [Compound B-15]	< 100 nM	< 100 nM
Cn1cc(NC(=O)c2nc(NC(=O)CCNC(=O)c3cc(NC(=O)c4nccn4C)cn3C)cn2C)cc1C(=O)NCCCC(=O)Nc1cn(C)c(C(=O)NCCC(=O)Nc2cc(C(=O)Nc3cn(C)c(C(=O)NCCC(=O)NCCOCCOc4ccc(N)cc4)n3)n(C)c2)n1 [Compound B-16]	100 to 500 nM	100 to 500 nM
Cn1cc(NC(=O)c2nc(NC(=O)CCNC(=O)c3cc(NC(=O)c4nccn4C)cn3C)cn2C)cc1C(=O)NCCCC(=O)Nc1cn(C)c(C(=O)NCCC(=O)Nc2cc(C(=O)Nc3cn(C)c(C(=O)NCCC(=O)NCCOCCOCCOCCN4CCC(C#CC#CC5CCN(C(=O)OC(C)(C)C)CC5)CC4)n3)n(C)c2)n1 [Compound B-17]	< 100 nM	< 100 nM
Cn1cc(NC(=O)c2nc(NC(=O)CCNC(=O)c3cc(NC(=O)c4nccn4C)cn3C)cn2C)cc1C(=O)NCCCC(=O)Nc1cn(C)c(C(=O)NCCC(=O)Nc2cc(C(=O)Nc3cn(C)c(C(=O)NCCC(=O)NCCOCCOCCOCCN4CCC(C#CC#CC5CCNCC5)CC4)n3)n(C)c2)n1 [Compound B-18]	100 to 500 nM	100 to 500 nM
Cn1cc(NC(=O)c2nc(NC(=O)CCNC(=O)c3cc(NC(=O)c4nccn4C)cn3C)cn2C)cc1C(=O)NCCCC(=O)Nc1cn(C)c(C(=O)NCCC(=O)Nc2cc(C(=O)Nc3cn(C)c(C(=O)NCCC(=O)NCCOCCN4CCC(C#CC#CC5CCN(C(=O)OC(C)(C)C)CC5)CC4)n3)n(C)c2)n1 [Compound B-19]	100 to 500 nM	< 100 nM
Cn1cc(NC(=O)c2nc(NC(=O)CCNC(=O)c3cc(NC(=O)c4nccn4C)cn3C)cn2C)cc1C(=O)NCCCC(=O)Nc1cn(C)c(C(=O)NCCC(=O)Nc2cc(C(=O)Nc3cn(C)c(C(=O)NCCC(=O)NCCOCCN4CCC(C#CC#CC5CCNCC5)CC4)n3)n(C)c2)n1 [Compound B-20]	500 to 1000 nM	500 to 1000 nM
Cn1cc(NC(=O)c2nc(NC(=O)CCNC(=O)c3cc(NC(=O)c4nccn4C)cn3C)cn2C)cc1C(=O)NCCCC(=O)Nc1cn(C)c(C(=O)NCCC(=O)Nc2cc(C(=O)Nc3cn(C)c(C(=O)NCCC(=O)NCCOCCOCCOCCOCCN4CCN(C5CCN(C(=O)OCc6ccccc6)CC5)CC4)n3)n(C)c2)n1 [Compound B-21]	100 to 500 nM	100 to 500 nM
Cn1cc(NC(=O)c2nc(NC(=O)CCNC(=O)c3cc(NC(=O)c4nccn4C)cn3C)cn2C)cc1C(=O)NCCCC(=O)Nc1cn(C)c(C(=O)NCCC(=O)Nc2cc(C(=O)Nc3cn(C)c(C(=O)NCCC(=O)NCCOCCOCCOCCOCCN4CCN(C5CCNCC5)CC4)n3)n(C)c2)n1 [Compound B-22]	100 to 500 nM	100 to 500 nM
Cn1cc(NC(=O)c2nc(NC(=O)CCNC(=O)c3cc(NC(=O)c4nccn4C)cn3C)cn2C)cc1C(=O)NCCCC(=O)Nc1cn(C)c(C(=O)NCCC(=O)Nc2cc(C(=O)Nc3cn(C)c(C(=O)NCCC(=O)N4CCC(N5CCN(CCOCCOCCOCCOCCNC(=O)OC(C)(C)C)CC5)CC4)n3)n(C)c2)n1 [Compound B-23]	> 1000 nM	100 to 500 nM
Cn1cc(NC(=O)c2nc(NC(=O)CCNC(=O)c3cc(NC(=O)c4nccn4C)cn3C)cn2C)cc1C(=O)NCCCC(=O)Nc1cn(C)c(C(=O)NCCC(=O)Nc2cc(C(=O)Nc3cn(C)c(C(=O)NCCC(=O)NCCOCCOCCOCCN4CCN(C5CCN(c6ccc([N+](=O)[O-])cc6)CC5)CC4)n3)n(C)c2)n1 [Compound B-25]	> 1000 nM	500 to 1000 nM
Cn1cc(NC(=O)c2nc(NC(=O)CCNC(=O)c3cc(NC(=O)c4nccn4C)cn3C)cn2C)cc1C(=O)NCCCC(=O)Nc1cn(C)c(C(=O)NCCC(=O)Nc2cc(C(=O)Nc3cn(C)c(C(=O)NCCC(=O)N4CCN(CCOCCOCCOCCOCCNC(=O)OC(C)(C)C)CC4)n3)n(C)c2)n1 [Compound B-27]	100 to 500 nM	100 to 500 nM
Cn1cc(NC(=O)c2nc(NC(=O)CCNC(=O)c3cc(NC(=O)c4nccn4C)cn3C)cn2C)cc1C(=O)NCCCC(=O)Nc1cn(C)c(C(=O)NCCC(=O)Nc2cc(C(=O)Nc3cn(C)c(C(=O)NCCC(=O)N4CCN(CCOCCOCCOCCOCCN)CC4)n3)n(C)c2)n1 [Compound B-28]	500 to 1000 nM	500 to 1000 nM
Cn1cc(NC(=O)c2nc(NC(=O)CCNC(=O)c3cc(NC(=O)c4nccn4C)cn3C)cn2C)cc1C(=O)NCCCC(=O)Nc1cn(C)c(C(=O)NCCC(=O)Nc2cc(C(=O)Nc3cn(C)c(C(=O)NCCC(=O)N4CCC(N5CCN(C(=O)OC(C)(C)C)CC5)CC4)n3)n(C)c2)n1 [Compound B-30]	< 100 nM	100 to 500 nM
Cn1cc(NC(=O)c2nc(NC(=O)CCNC(=O)c3cc(NC(=O)c4nccn4C)cn3C)cn2C)cc1C(=O)NCCCC(=O)Nc1cn(C)c(C(=O)NCCC(=O)Nc2cc(C(=O)Nc3cn(C)c(C(=O)NCCC(=O)N4CCC(N5CCNCC5)CC4)n3)n(C)c2)n1 [Compound B-31]	100 to 500 nM	< 100 nM
